Data reported in patent US10517844B2, “Inhibition of proline catabolism for the treatment of cancer and other therapeutic applications” (Buck Institute for Research on Aging, priority 2014, dated 2019).
Entries after “also recorded” stand apart in the source; their conditions may differ. Blank lines part the entries; values can stand above or below the compound they belong to.

What was measured:
breast cancer models = test: Interaction of PRODH inhibitors with p53 wt restoration; format: cell-based, human; conditions: various breast cancer models
Excerpt: Our recent studies have shown that p53 wt restoration by the MDM2 inhibitor MI-63 triggers early and very different mitochondrial bioenergetic and global metabolic pool changes between malignant (e.g., MCF7, ZR-75-1, ZR-75-30, DU4475) and non-malignant (e.g., MCF-10A) mammary epithelial systems (Yau et al. (2011) Amer. Assoc. Cancer Res. 52: a3797, 2011; Yau et al. (2012) Amer. Assoc. Cancer Res. 53: a5160). Having first observed that PRODH siRNA knockdown promotes apoptosis in p53 wt breast cancer cells, we then evaluated PRODH knockdown in combination with MI-63 induced p53 restoration. […] Knockdown of P5CDH (the next enzymatic step in proline catabolism) produced a similar but less pronounced pro-apoptotic response in combination with MI-63, convincing us that PRODH is the most appropriate therapeutic target for synthetic lethality. […] Equally relevant, since PRODH provides a bypass source of mitochondrial glutamate for glutamine-addicted (e.g., GLS1 overexpressing) cancers, particularly those most sensitive to clinically emergent GLS1 inhibitors like CB-839 (Katt and Cerione (2014) Drug Discov. Today, 19: 450-457; Gross et al. (2014) Mol. Cancer Ther. 13: 890-901), our new data also supports the fact that PRODH inhibition induces a synthetic lethal anticancer response in combination with GLS1 inhibition among our various breast cancer models.

[1] = tested on: DU4475 breast cancer cells; test: Apoptosis by cleaved PARP Western blot; format: cell-based, human; conditions: DU4475, combined with MI-63
DU4475 = test: Growth inhibition / cell viability, drug combination; format: cell-based, human; conditions: for Growth inhibiting interaction with CB-839: 72 h
PRODH [2] = conditions: cited from earlier work
ZR75-1 = test: Growth inhibition, drug combination; format: cell-based, human; conditions: for Growth inhibiting interaction with CB-839: 72 h
MCF7 = test: Growth inhibition / cell viability, drug combination; format: cell-based, human; conditions: for Growth inhibiting interaction with CB-839: 72 h; for Cell viability, interaction with CB-839: MCF7, single dose, 48 h
BT474 = test: Growth inhibition, drug combination; format: cell-based, human; conditions: for Growth inhibiting interaction with CB-839: 72 h
[3] = tested on: malignant breast epithelial cells; test: Protein levels after p53 restoration by MI-63; format: cell-based, human
Excerpt: New cancer treatments based on the restoration or reactivation of p53 wt function were first envisioned over a decade ago, and multiple pharmacological strategies have since emerged from preclinical studies that now show great clinical promise (12-17), particularly against malignancies like breast cancers in which 75% of all newly diagnosed cases express wildtype p53 (TCGA Network (2012). Nature 490: 61-70). […] Likewise, p53 induced metabolic changes linking proline metabolism to the urea cycle (OAT) and to glutaminolysis (GLS2) and the TCA cycle have been observed in our model systems (Yau et al. (2012) Amer. Assoc. Cancer Res. 53: a5160).

PRODH [4] = target: T1, PRODH (Homo sapiens, UniProt O43272); test: NADH-generating mitochondrial PRODH bioassay; format: biochemical
T1 construct: Mitochondria freshly isolated from PPG pretreated (15 h) and washed (30 min) ZR-75-1 cells; endogenous in cells; host or cells: mitochondria isolated from ZR-75-1 human breast cancer cells
T1 sequence (O43272 1-600): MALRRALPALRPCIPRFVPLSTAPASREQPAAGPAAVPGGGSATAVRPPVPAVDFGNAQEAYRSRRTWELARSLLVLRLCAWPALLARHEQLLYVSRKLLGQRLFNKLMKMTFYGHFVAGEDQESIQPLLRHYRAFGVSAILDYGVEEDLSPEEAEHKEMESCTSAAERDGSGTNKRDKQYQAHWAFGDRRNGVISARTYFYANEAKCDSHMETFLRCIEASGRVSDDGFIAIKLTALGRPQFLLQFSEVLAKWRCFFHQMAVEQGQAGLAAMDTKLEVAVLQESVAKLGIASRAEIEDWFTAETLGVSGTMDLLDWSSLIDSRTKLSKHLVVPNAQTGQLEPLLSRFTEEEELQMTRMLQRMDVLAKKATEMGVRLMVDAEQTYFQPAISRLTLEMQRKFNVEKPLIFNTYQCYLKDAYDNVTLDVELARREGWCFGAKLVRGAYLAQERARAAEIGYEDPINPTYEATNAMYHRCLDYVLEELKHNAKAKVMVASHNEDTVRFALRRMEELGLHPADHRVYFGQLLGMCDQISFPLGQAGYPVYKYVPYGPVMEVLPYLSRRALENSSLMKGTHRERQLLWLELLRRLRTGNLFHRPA
Excerpt: Mitochondrial PRODH bioassays capable of measuring inhibitor activity are described in Goncalves et al. (2014) Redox Biol. 2: 901-909 (which is hereby incorporated by reference herein for this description). These include, inter alia: i) spectrophotometric detection of OAB reacted with proline generated P5C, ii) dual wavelength spectrophotometric detection (A566-A575) of endogenous cytochrome b566 reduction that occurs directly upon mitochondrial PRODH oxidation of proline, and iii) fluorescence spectrometry detection (lex 340 nm, lem 460 nm) of mitochondrial NADH levels as a function of substrate and inhibitor treatment. See details in Example below. The mitochondrial PRODH assay is described therein detects mitochondrial NADH production resulting downstream from PRODH production of P5C and then glutamate, while controlling for other sources of mitochondrial NADH production.
We have optimized our mitochondrial preparation technique and developed three different mitochondrial PRODH bioassays capable of measuring inhibitor activity which are now reported (Goncalves et al. (2014) Redox Biol. 2: 901-909); these include: i) spectrophotometric detection of OAB reacted with proline generated P5C, ii) dual wavelength spectrophotometric detection (A566-A575) of endogenous cytochrome b566 reduction that occurs directly upon mitochondrial PRODH oxidation of proline, and iii) fluorescence spectrometry detection (lex 340 nm, lem 460 nm) of mitochondrial NADH levels as a function of substrate and inhibitor treatment.
Briefly, in an exemplary protocol, cells are harvested from 2 to 4500 cm^2 dishes at 90% confluence, washed three times in ice-cold STE (250 mM sucrose, 5 mM Tris-HCl, 2 mM EGTA, pH7.4), scraped off, suspended in 50 ml STE and centrifuged for 10 min at 500 g. The pellet is resuspended in STE supplemented with 1% (w/v) fatty acid-free bovine serum albumin and homogenized (up to 20 strokes). The suspension is brought to 50 ml and centrifuged for 5 min at 1000 g. The supernatant is centrifuged for 10 min at 11,000 g. The pellet is resuspended in STE and centrifuged for 10 min at 10,000 g. The mitochondrial pellet is resuspended in STE and kept on ice. Protein is determined by Bradford assay(Biorad).
NAD(P)H is measured using 0.3 mg mitochondrial protein/ml at 37° C. in KHEPMB (KHE containing 5 mM K2HPO4, 2 mM MgCl2, 0.3% (w/v) fatty acid-free bovine serum albumin) plus 1 mM ADP and 2.5 μg/ml oligomycin. The reduction state of endogenous NAD(P)H Is determined by autofluorescence using the Pherastar microplate reader at λexcitation=340 nm, λemission=460 nm. NAD(P)H was assumed to be 0% reduced after 5 min without added substrate, then rotenone was added. The 100% reduced level was established with saturating substrate (e.g., 5 mM malate, glutamate and proline) and 4 μM rotenone. Intermediate values were determined as % reduced NAD(P)H relative to the 0% and 100% values.
For screening purposes, the NADH fluorescence bioassay can be routinely used as it is the most sensitive and amenable to higher throughput.

MCF10A cells = test: Cell viability, non-malignant cells; format: cell-based, human
[5] = tested on: multiple breast cancer cell lines; test: Growth inhibition in combination with CB-839; format: cell-based, human
Drosophila = Drosophila lifespan after dietary PPG during oogenesis; format: in vivo; conditions: dietary 5 mM x 24 h during oogenesis, 2nd day collected eggs, 70 days
Procedure: Female Drosophila were starved for 4 h, then combined with males on liquid 5% sucrose food with or without 5 mM PPG. After 24 h, females were transferred to egg collection containers, and eggs collected after 1, 2, and 3 days. Collected eggs were transferred to bottles of regular food, separately for each collection day. Larvae developed normally, were transferred to vials after eclosion; vials were exchanged thrice weekly throughout life.

PRODH [6] = test: Dietary PPG in adult Drosophila, Sluggish-A phenotype; format: in vivo; conditions: dietary 5 mM x 48 h
ZR-75-1 = test: Protein degradation in treated culture (Western blot); format: cell-based, human
[7] = ZR-75-1 cells pretreated 15 h, washed 30 min

Compound: O=C(O)[C@@H]1CCCO1 [L-THFA, L-tetrahydro-2-furoic acid]
- Interaction with p53 wt restoration (breast cancer models): synthetic lethal interactions
- Apoptosis (c PARP production) over MI-63 treatment alone [1]: ~4 fold
- Viable cell growth in culture (DU4475; DU4475, combined with MI-63): synthetic lethality effectiveness; also recorded: synergistically reduces viable cell growth
- Ki (PRODH [2]): 300 µM

Compound: COc1ccc(C2=N[C@@H](c3ccc(Cl)cc3)[C@@H](c3ccc(Cl)cc3)N2C(=O)N2CCNC(=O)C2)c(OC(C)C)c1 [Nutlin-3a, reference compound]
- Growth inhibiting interaction with CB-839 (ZR75-1; ZR75-1, +Nutlin-3a (5 μM)): Additive
- Growth inhibiting interaction with CB-839 (MCF7; MCF7, +Nutlin-3a (5 μM)): Additive
- Growth inhibiting interaction with CB-839 (DU4475; DU4475, +Nutlin-3a (5 μM)): Synergistic
- Growth inhibiting interaction with CB-839 (BT474; BT474, +Nutlin-3a (5 μM)): No interaction

Compound: CC(C)(C)C[C@H]1N[C@@H](C(=O)NCCN2CCOCC2)[C@H](c2cccc(Cl)c2F)[C@@]12C(=O)Nc1cc(Cl)ccc12 [MI-63]
- Induction of PRODH protein levels [3]: ≥ 5 fold
- P5C reductase (PYCR1) levels [3]: coordinate decrease
- P5CDH protein level [3]: no change

- PRODH inhibiting activity (PRODH [4]; mitochondrial PRODH assay): retains PRODH inhibiting activity
Compound: C#CC(C)NCC(=O)O (racemic) [(R/S)-PPG]

Compound: O=C1CC[C@@H](C(=O)O)O1 [Compound 5-oxo, (S)-(+)-5-oxo-2-tetrahydrofurancarboxylic acid]
- S versus R isomers in mitochondrial PRODH bioassay (PRODH [4]): stereospecificity of S-5-oxo
- PRODH enzymatic inhibition after washout (PRODH [4]; same washout (30 min)): completely lost (reversed); also recorded: completely lost by washout
- Cell viability / growth inhibition in non-malignant cells (MCF10A cells; combined with CB-839): no treatment effects
- Cell viability / growth inhibition in non-malignant cells (MCF10A cells; combined with CB-839, listed as S-5-oxo): lack of any growth inhibition
- Treatment interaction (ZR75-1; ZR75-1, 5-oxo (1 μM) + CB839 (1 μM)): Synergistic
- Growth inhibiting interaction with CB-839 (ZR75-1; ZR75-1, +5-oxo (5 mM)): Synergistic
- Treatment interaction (MCF7; MCF7, 5-oxo (1 μM) + CB839 (1 μM)): Synergistic
- Growth inhibiting interaction with CB-839 (MCF7; MCF7, +5-oxo (5 mM)): Synergistic
- Cell viability, interaction with CB-839 (MCF7): additive interactions
- Interaction with p53 wt restoration (breast cancer models): synthetic lethal interactions
- Treatment interaction (DU4475; DU4475, 5-oxo (1 μM) + CB839 (1 μM)): Synergistic
- Growth inhibiting interaction with CB-839 (DU4475; DU4475, +5-oxo (5 mM)): Synergistic
- Treatment interaction (BT474; BT474, 5-oxo (1 μM) + CB839 (1 μM)): Additive
- Growth inhibiting interaction with CB-839 (BT474; BT474, +5-oxo (5 mM)): Additive
- Growth inhibition in combination with CB-839 ([5]; within 48 h): additive growth inhibition
- Growth inhibition in combination with CB-839 ([5]; within 72 h): synergistic growth inhibition

Compound: C#CCNCC(=O)O [PPG, N-propargylglycine]
- PRODH enzymatic inhibition compared at equimolar inhibitor concentration (PRODH [4]; 2 mM): significantly greater PRODH enzymatic inhibition over S-5-oxo
- Malate metabolism (NADH formation) by isolated mitochondria (PRODH [4]; [7]): not affected; also recorded: fully capable of metabolizing malate
- Proline metabolism (NADH formation) by isolated mitochondria (PRODH [4]; [7]): remain unable to metabolize proline; also recorded: remained completely unable to metabolize proline
- Median and maximum lifespan (Drosophila): significantly extends median and maximum lifespan
- Cell viability / growth inhibition in non-malignant cells (MCF10A cells; combined with CB-839): no treatment effects; also recorded: lack of any growth inhibition
- Cell viability, interaction with CB-839 (MCF7): additive interactions
- Interaction with p53 wt restoration (breast cancer models): synthetic lethal interactions
- Fly viability (PRODH [6]): without loss of fly viability
- PRODH inhibition in vivo (Sluggish-A phenotype) (PRODH [6]): completely inhibits PRODH in vivo
- Time of exposure to PRODH protein degradation (ZR-75-1): ≤ 24 h
- Cytoplasmic FAD containing protein MTHFR decline (ZR-75-1; ZR-75-1, 24-72 h): does not
- Mitochondrial complex-1 protein NDUFS1 level (ZR-75-1; ZR-75-1, 24-72 h): also declines
- Degradation of PRODH protein (ZR-75-1; ZR-75-1 culture treatment, within 24-72 h): 30-60%
- Growth inhibition in combination with CB-839 ([5]; within 48 h): additive growth inhibition
- Growth inhibition in combination with CB-839 ([5]; within 72 h): synergistic growth inhibition
